Measurements published in patent publication US8354422B2, “Pyrimidine inhibitors of kinase activity” (Abbott Laboratories Inc., priority 2009, dated 2013).
pIC50: −log10 of the molar value.

biological target: T1, C-terminal GST-tagged, recombinant, human IGF-1R, amino acids 954-1367 (Homo sapiens, UniProt P08069); assay: IGF-1R kinase activity, homogenous time-resolved fluorescence (HTRF) in vitro kinase assay; format: biochemical; details: IGF-1R kinase HTRF assay, ATP 50 μM, biotinylated peptide substrate 0.5 μM, 60 minutes at room temperature
T1 construct: human IGF-1R, amino acids 954-1367 expressed by baculovirus in Sf21 cells; GST (C); purchased Cell Signaling Technology; host or cells: baculovirus in Sf21 cells
T1 sequence (P08069 954-1367): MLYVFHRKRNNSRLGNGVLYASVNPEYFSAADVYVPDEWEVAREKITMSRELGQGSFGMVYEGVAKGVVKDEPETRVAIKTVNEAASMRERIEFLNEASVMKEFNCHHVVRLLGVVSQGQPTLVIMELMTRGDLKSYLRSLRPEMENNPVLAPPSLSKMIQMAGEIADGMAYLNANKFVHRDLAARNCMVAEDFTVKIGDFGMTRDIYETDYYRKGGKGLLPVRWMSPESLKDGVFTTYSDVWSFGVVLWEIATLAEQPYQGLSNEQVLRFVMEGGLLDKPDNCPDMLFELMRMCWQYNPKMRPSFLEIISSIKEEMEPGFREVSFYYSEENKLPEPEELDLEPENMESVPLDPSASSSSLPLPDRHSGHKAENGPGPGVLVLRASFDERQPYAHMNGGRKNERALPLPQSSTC
Procedure, shortened: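 HTRF assay with baculovirus/Sf21-expressed enzyme, 50 μM ATP, 0.5 μM biotinylated peptide substrate, 2% DMSO, in HEPES pH 7.5 buffer with MgCl2, 2 mM MnCl2, BSA, DTT; 60 min at room temperature. EDTA-quenched, detected with streptavidin-APC and Eu-cryptate anti-phosphotyrosine mAb; 615/665 nm ratio used for IC50.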

pIC50 | SMILES
< 6.00 | CN(C)CCc1cccc(Nc2nccc(-c3c(-c4ccc(OCc5ccccc5)c(C(F)(F)F)c4)nc4ccccn34)n2)c1 [Example 49, 4-{2-[4-(benzyloxy)-3-(trifluoromethyl)phenyl]imidazo[1,2-a]pyridin-3-yl}-N-{3-[2-(dimethylamino)ethyl]phenyl}pyrimidin-2-amine]
7.00 to 7.60 | COc1cc(N2CCC(N(C)C)CC2)ccc1Nc1nccc(-c2c(-c3ccc(OCc4ccccc4)cc3)nc3sccn23)n1 [Example 80, 4-{6-[4-(benzyloxy)phenyl]imidazo[2,1-b][1,3]thiazol-5-yl}-N-{4-[4-(dimethylamino)piperidin-1-yl]-2-methoxyphenyl}pyrimidin-2-amine]
> 7.60 | CN(C)CCc1cccc(Nc2nccc(-c3c(-c4ccc(OCc5ccccc5)cc4)nn4ccccc34)n2)c1 [Example 75, 4-{2-[4-(benzyloxy)phenyl]pyrazolo[1,5-a]pyridin-3-yl}-N-{3-[2-(dimethylamino)ethyl]phenyl}pyrimidin-2-amine]
